# Data reported in patent publication US11213031B2, “Tetrazolylpropyl derivatives and their use as fungicides” (BAYER AKTIENGESELLSCHAFT, priority 2017, dated 2022).
# Read-outs that look alike come from different tables or passages of the source.
# Legend:
# Sphaerotheca fuliginea = assay: In vivo preventive test on Sphaerotheca fuliginea (powdery mildew on cucurbits); settings: Podosphaera fuliginea, 192 h; 500 ppm of active ingredient; gherkin plants sprayed 24 hours before inoculation; evaluated 8 days after inoculation; read-out: efficacy
# Method: (§1) Solvent: 5% by volume of Dimethyl sulfoxide • 10% by volume of Acetone
# (§2) Emulsifier: 1 μl of Tween® 80 per mg of active ingredient
# (§3) The active ingredients were made soluble and homogenized in a mixture of Dimethyl sulfoxide/Acetone/Tween® 80 and then diluted in water to the desired concentration.
# The young plants of gherkin were treated by spraying the active ingredient prepared as described above. Control plants were treated only with an aqueous solution of Acetone/Dimethyl sulfoxide/Tween® 80.
# After 24 hours, the plants were contaminated by spraying the leaves with an aqueous suspension of Sphaerotheca fuliginea spores. The contaminated gherkin plants were incubated for 8 days at 20° C. and at 70-80% relative humidity.
# The test was evaluated 8 days after the inoculation. 0% means an efficacy which corresponds to that of the control plants while an efficacy of 100% means that no disease was observed.
# Uromyces appendiculatus = assay: In vivo preventive test on Uromyces appendiculatus (bean rust); settings: 264 h, 500 ppm of active ingredient, bean plants sprayed 24 hours before inoculation, evaluated 11 days after inoculation, read-out: efficacy
# Method: as §1, §2, §3
# The young plants of bean were treated by spraying the active ingredient prepared as described above. Control plants were treated only with an aqueous solution of Acetone/Dimethyl sulfoxide/Tween® 80.
# After 24 hours, the plants were contaminated by spraying the leaves with an aqueous suspension of Uromyces appendiculatus spores. The contaminated bean plants were incubated for 24 hours at 20° C. and at 100% relative humidity and then for 10 days at 20° C. and at 70-80% relative humidity.
# The test was evaluated 11 days after the inoculation. 0% means an efficacy which corresponds to that of the control plants while an efficacy of 100% means that no disease was observed.
# [1] = Log P by HPLC on reversed phase columns (EEC directive 79/831 Annex V.A8); assay type: physicochemical
# Method: Measurement of Log P values was performed according to EEC directive 79/831 Annex V.A8 by HPLC (High Performance Liquid Chromatography) on reversed phase columns with the following methods: • ^[a]Log P value is determined by measurement of LC-UV, in an acidic range, with 0.1% formic acid in water and acetonitrile as eluent (linear gradient from 10% acetonitrile to 95% acetonitrile). • ^[b]Log P value is determined by measurement of LC-UV, in a neutral range, with 0.001 molar ammonium acetate solution in water and acetonitrile as eluent (linear gradient from 10% acetonitrile to 95% acetonitrile). • ^[c]Log P value is determined by measurement of LC-UV, in an acidic range, with 0.1% phosphoric acid and acetonitrile as eluent (linear gradient from 10% acetonitrile to 95% acetonitrile).
# If more than one Log P value is available within the same method, all the values are given and separated by “+”.
# Calibration was done with straight-chain alkan2-ones (with 3 to 16 carbon atoms) with known Log P values (measurement of Log P values using retention times with linear interpolation between successive alkanones). Lambda-max-values were determined using UV-spectra from 200 nm to 400 nm and the peak values of the chromatographic signals.
# Septoria tritici = assay: In vivo preventive test on Septoria tritici (leaf spot on wheat); settings: Zymoseptoria tritici, 456 h; 500 ppm of active ingredient; wheat plants sprayed 24 hours before inoculation; evaluated 19 days after inoculation; read-out: efficacy
# Method: as §1, §2, §3
# The young plants of wheat were treated by spraying the active ingredient prepared as described above. Control plants were treated only with an aqueous solution of Acetone/Dimethyl sulfoxide/Tween® 80.
# After 24 hours, the plants were contaminated by spraying the leaves with an aqueous suspension of Septoria tritici spores. The contaminated wheat plants were incubated for 72 hours at 17° C. and at 100% relative humidity and then for 15 days at 20° C. and at 90% relative humidity.
# The test was evaluated 19 days after the inoculation. 0% means an efficacy which corresponds to that of the control plants while an efficacy of 100% means that no disease was observed.
# [2] = method [a]: LC-UV, acidic range, 0.1% formic acid in water and acetonitrile as eluent
Structure (SMILES),pest or weed control at 500 ppm (Sphaerotheca fuliginea) [%],pest or weed control at 500 ppm (Uromyces appendiculatus) [%],"chromatographic logP [1, 2]",pest or weed control at 500 ppm (Septoria tritici) [%],LogP [1],also measured
"OC(Cc1ccccc1F)(Cn1ncnn1)C1(Cl)CC1 (centres unmarked) [Ib-02, 2-(1-chlorocyclopropyl)-1-(2-fluorophenyl)-3-(tetrazol-2-yl)propan-2-ol]",90 to 100,90 to 100,2.86,90 to 100,–,–
"OC(Cc1ccccc1Cl)(Cn1cnnn1)C1(Cl)CC1 (centres unmarked) [Ia-05, 2-(1-chlorocyclopropyl)-1-(2-chlorophenyl)-3-(tetrazol-1-yl)propan-2-ol]",90 to 100,90 to 100,2.65,90 to 100,–,–
"OC(Cc1ccccc1)(Cn1cnnn1)C1(Cl)CC1 (centres unmarked) [Ia-01, 2-(1-chlorocyclopropyl)-1-phenyl-3-(tetrazol-1-yl)propan-2-ol]",90 to 100,90 to 100,2.41,70 to 79,–,–
"OC(Cc1ccccc1F)(Cn1cnnn1)C1(Cl)CC1 (centres unmarked) [Ia-04, 2-(1-chlorocyclopropyl)-1-(2-fluorophenyl)-3-(tetrazol-1-yl)propan-2-ol]",90 to 100,90 to 100,2.46,90 to 100,–,–
"OC(Cc1cccnc1Cl)(Cn1cnnn1)C1(Cl)CC1 (centres unmarked) [Ia-03, 2-(1-chlorocyclopropyl)-1-(2-chloro-3-pyridyl)-3-(tetrazol-1-yl)propan-2-ol]",90 to 100,90 to 100,1.72,90 to 100,–,"chromatographic logP ([1]; method [b]: LC-UV, neutral range, 0.001 molar ammonium acetate solution in water and acetonitrile as eluent): 1.68"
"OC(Cc1cccnc1Cl)(Cn1ncnn1)C1(Cl)CC1 (centres unmarked) [Ib-05, 2-(1-chlorocyclopropyl)-1-(2-chloro-3-pyridyl)-3-(tetrazol-2-yl)propan-2-ol]",90 to 100,70 to 79,2.03,90 to 100,–,–
"C=C(c1ccccc1F)C(O)(Cn1cnnn1)C1(Cl)CC1 (centres unmarked) [Ia-en-02, 2-(1-chlorocyclopropyl)-3-(2-fluorophenyl)-1-(tetrazol-1-yl)but-3-en-2-ol]",90 to 100,90 to 100,2.46,90 to 100,–,–
OC(Cc1cccc(Cl)c1Cl)(Cn1cnnn1)C1(Cl)CC1 (centres unmarked) [Ia-15],–,–,–,–,3.19^[a],–
COC(Cc1ccccc1Cl)(Cn1cnnn1)C1(Cl)CC1 (centres unmarked) [Ia-37],–,–,–,–,3.19^[a],–
Cc1ccc(CC(O)(Cn2cnnn2)C2(C)CC2)cc1 (centres unmarked) [Ia-30],–,–,–,–,2.73^[a],–
"OC(Cc1ccccc1Cl)(Cn1ncnn1)C1(Cl)CC1 (centres unmarked) [Ib-04, 2-(1-chlorocyclopropyl)-1-(2-chlorophenyl)-3-(tetrazol-2-yl)propan-2-ol]",–,–,3.2,–,–,–
OC(Cc1ccccc1Br)(Cn1cnnn1)C1(F)CC1 (centres unmarked) [Ia-21],–,–,–,–,2.49^[a],–
COc1ccc(CC(O)(Cn2cnnn2)C2(F)CC2)cc1 (centres unmarked) [Ia-27],–,–,–,–,2.08^[a],–
OC(Cc1ccccc1Cl)(Cn1cnnn1)C1(F)CC1 (centres unmarked) [Ia-19],–,–,–,–,2.40^[a],–
COc1ccc(CC(O)(Cn2cnnn2)C2(Cl)CC2)cc1 (centres unmarked) [Ia-58],–,–,–,–,2.40^[a],–
OC(Cc1cncc(F)c1)(Cn1cnnn1)C1(Cl)CC1 (centres unmarked) [Ia-59],–,–,–,–,1.53^[a],–
OC(Cc1cncc(Cl)c1)(Cn1ncnn1)C1(Cl)CC1 (centres unmarked) [Ib-01],–,–,–,–,2.13^[a],–
OC(Cc1cccc(Br)c1F)(Cn1cnnn1)C1(Cl)CC1 (centres unmarked) [Ia-41],–,–,–,–,2.92^[a],–
COC(Cc1ccccc1Br)(Cn1cnnn1)C1(Cl)CC1 (centres unmarked) [Ia-70],–,–,–,–,3.23^[a],–
OC(Cc1c(F)ccc(F)c1F)(Cn1cnnn1)C1(Cl)CC1 (centres unmarked) [Ia-54],–,–,–,–,2.60^[a],–
OC(Cc1cccc(F)c1F)(Cn1ncnn1)C1(Cl)CC1 (centres unmarked) [Ib-03],–,–,–,–,2.82^[a],–
"CC(c1cc(F)ccc1F)C(O)(Cn1cnnn1)C1(Cl)CC1 (single isomer, unassigned) [Ia-18]",–,–,–,–,2.92^[a],–
"CC(c1ccccc1F)C(O)(Cn1cnnn1)C1(Cl)CC1 (single isomer, unassigned) [Ia-22, 2-(1-chlorocyclopropyl)-3-(2-fluorophenyl)-1-(tetrazol-1-yl)butan-2-ol]",–,–,–,90 to 100,–,"LogP [1, 2]: 2.80^[a]"
COc1ccc(F)c(CC(O)(Cn2cnnn2)C2(Cl)CC2)c1F (centres unmarked) [Ia-46],–,–,–,–,2.51^[a],–
"CC(c1ccccc1F)C(O)(Cn1cnnn1)C1(Cl)CC1 (single isomer, unassigned) [Ia-20, 2-(1-chlorocyclopropyl)-3-(2-fluorophenyl)-1-(tetrazol-1-yl)butan-2-ol]",90 to 100,90 to 100,2.61,–,–,–
